Results as given in patent US7144867B2, “Anticancer glycoside compounds” (priority 2004, dated 2006).
Marks after values point to notes of the source that are not given here.

Assays:
AsPC-1 cells = assay: Annexin V assay; type: cell-based, human; details: 4 μg/mL, within 3 hours
Procedure: Annexin V assay. […] The cells were then rinsed with PBS and 500 μL of assay buffer once. Then, 200 μL of assay buffer, 4 μL of annexin-V FITC, and 20 μL of propidium iodide were added to each coverslip. The coverslip were then incubated at room temperature for 15 min in the dark and washed once with PBS. Cells were finally viewed under fluorescence microscope using a dual filter set for FITC and rhodamine, and pictures were taken using a Kodak DC 120 digital zoom camera (Eastman Kodak Company, Rochester, N.Y.).

p21 = assay: Western blotting, p21 in AsPC-1 cells; type: cell-based, human; details: 4 μg/mL, time-dependent (FIG. 5)
Procedure: Western blotting. Cells were seeded into flasks and cultured to 50% to 60% confluence for 24 hours. Cells were then placed in serum-free medium with or without 4 μg/mL frondoside A for periods of 0, 24, 48 and 72 hours respectively. Proteins were extracted from attached and floating cells in lysis buffer containing 4% SDS. Protein concentrations were determined using the bicinchoninic acid assay with BSA as standard. Western blotting was carried out. In brief, equal amounts of protein in the cell lysates were separated on 15% SDS-PAGE and the proteins were transferred onto nitrocellulose membranes. After blocking non-specific sites with dried milk, membranes were incubated with the appropriate dilution of primary antibody. Membranes were then incubated with a horseradish peroxidase conjugated secondary antibody. Proteins were detected using an enhanced chemiluminescence detection system.

[1] = tested on: AsPC-1 human pancreatic cancer xenografts; assay: AsPC-1 xenografts in athymic mice; type: in vivo; details: 10 μg/kg/day intraperitoneal, 4 weeks
Procedure: Animal Study. Athymic mice (BALB/c nu/nu, 5-week old females) were purchased from Charles River Laboratories (Wilmington, Mass.). Mice were acclimatized to the animal facility for one week prior to receiving xenografts. Xenografts of three million AsPC-1 cells were injected into the flanks of mice. Once visible tumors were evidenced 4–5 days after injection, the animals were divided equally into two groups (6 animals/group) and treated with frondoside A (10 μg/kg/day) or control vehicle (100 μL phosphate-buffered saline, PBS) by intraperitoneal injection. Animal weight and tumor size were recorded every three days. The formula used for tumor volume was (length)H(width)H(length+width/2)H0.526=volume (Naito et al., Int. J. Cancer 58:730 [1994]). After 4-weeks of treatment the animals were euthanized and the tumors were carefully dissected and tumor weights measured.

[2] = tested on: DLD-1 (human colon adenocarcinoma); assay: cells; details: for Percent Growth (Mean ± SEM, n = 2): 72-hour
Procedure: Test Substance and Concentration. Frondoside A (CBR-24) was dissolved in 100% DMSO and then diluted with sterile distilled water to obtain initial working solutions of 10000, 1000, 100, 10, and 1 μM in 40% DMSO. A 100-fold dilution was further made in culture media to generate final assay concentration of 100, 10, 1, 0.1 and 0.01 μM in 0.4% of DMSO.
Cell Line and Culture Media. The tumor cell line DLD-1 (human colon adenocarcinoma), obtained from American Type Culture Collection (ATCC CCL-221), was incubated in 95% air-5% CO2 gas mixture at 37° C. The culture medium used was RPMI 1640 with 10% fetal bovine serum, which was supplemented with 1% Antibiotic-Antimycotic.
Evaluation of anti-proliferation for test substances. Aliquots of 100 μl of cell suspension (about 2.5×10^3 cells/well) were placed in 96-well microtiter plates in an atmosphere of 5% CO2 at 37° C. […] Thus, the final concentration of DMSO was 0.4%. The Frondoside A was evaluated for possible inhibitory effects on cell proliferation at concentrations of 100, 10, 1, 0.1 and 0.01 μM. At the end of incubation, 20 μl of 90% alamarBlue reagent was added to each well for another 6 hour incubation before detection of cell viability by fluorescent intensity. Fluorescent intensity was measured using a Spectrafluor Plus plate reader with excitation at 530 nm and emission at 590 nm.
Determination of IC50, TGI and LC50. The measured results were calculated by the following formula: PG(%)=100%×(Mean Ftest−Mean Ftime0)/(Mean Fctrl−Mean Ftime0) If (Mean Ftest−Mean Ftime0)<0, then PG (%)=100%×(Mean Ftest−Mean Ftime0)/(Mean Ftime0−Mean Fblank) Where: • PG: percent growth • Mean Ftime0=The average of 2 measured fluorescent intensities of reduced alamarBlue at the time just before exposure of cells to the test substance. • Mean Ftest=The average of 2 measured fluorescent intensities of alamarBlue after 72-hour exposure of cells to the test substance. • Mean Fctrl=The average of 2 measured fluorescent intensities of alamarBlue after 72-hour incubation without the test substance. • Mean Fblank=The average of 2 measured fluorescent intensities of alamarBlue in medium without cells after 72-hour incubation.

[3] = tested on: HUVEC (human umbilical vein endothelial cells); assay: Angiogenesis, tube formation on Matrigel; type: cell-based; details: for %, Inhibition of the total tube length (Mean ± SEM, n = 2): HUVEC, 18 hours
Procedure: Test Substance and Concentration.
Cell Line and Culture Media.
Evaluation of anti-proliferation for test substances. Matrigel matrix was thawed, kept on ice at 4° C. and 50 μL transferred to each well of a 96-microwell tissue culture plate. The plate was incubated at 37° C. for at least one hour to allow the matrix solution to solidify before treatment.
Aliquots of 200 μl of (HUVEC) suspension (about 1.5×10^4 cells/well) were placed in 96-well microtiter plate. Two microliters of compound test solution or vehicle (40% DMSO) was then added per well in duplicate and incubated at 5% CO2 at 37° C. for 18 hours. The final concentration of DMSO was 0.4%. […] Failure to form continuous networks between cell bodies in the presence of test substance was photographed and scored as to the extent of tube disruption at a magnification of 40×. […] The minimum inhibitory concentration (MIC) was calculated to assess the effect of the test substance on angiogenesis.

COC1C(O)C(CO)OC(OC2C(O)COC(OC3C(C)OC(OC4C(OC5CCC6(C)C7CCC89C(=O)OC(C)(CCCC(C)C)C8C(OC(C)=O)CC9(C)C7=CCC6C5(C)C)OCC(OS(=O)(=O)[O-])C4O)C(OC4OCC(O)C(O)C4O)C3O)C2O)C1O.[Na+] [Frondoside A, 3-O-methyl-β-D-glucopyranosyl-(1→3)-β-D-xylopyranosyl-(1→4)-[β-D-xylopyranosyl-(1→2)]-β-D-quinovopyranosyl-(1→2)-4-O-sodium sulfate-β-D-xylopyranosyl-3-O-holost-7(8)-en-3β-ol-16β-O-acetate]
Annexin V binding (AsPC-1 cells): Annexin V binding was observed
expression of P21 (p21): markedly increased
body weights of control and treated animals ([1]; athymic mice): no significant difference
toxicity through the treatment period ([1]; athymic mice): No toxicity was seen
growth of subcutaneously transplanted AsPC-1 cells (tumor volume and tumor weight) ([1]; athymic mice (FIG. 6)): markedly inhibited the growth
growth inhibition of DLD-1 cells relative to the vehicle-treated control ([2]; 10 μM and 100 μM (≦50% of cell proliferation)): significant growth inhibition
Percent Growth (Mean ± SEM, n = 2) ([2]; DLD-1, 0.01 μM): 93 ± 5%
Percent Growth (Mean ± SEM, n = 2) ([2]; DLD-1, 0.1 μM): 84 ± 11%
Percent Growth (Mean ± SEM, n = 2) ([2]; DLD-1, 1 μM): 79 ± 5%
Percent Growth (Mean ± SEM, n = 2) ([2]; DLD-1, 10 μM): 12 ± 0%
Percent Growth (Mean ± SEM, n = 2) ([2]; DLD-1, 100 μM): −79 ± 5%
TGI (Total Growth Inhibition) ([2]; DLD-1, semi-quantitative, nonlinear regression): 12 µM
IC50 ([2]; read-out: IC50 (50% Inhibition Concentration), DLD-1, semi-quantitative, nonlinear regression): 3.6 µM
CC50 ([2]; read-out: LC50 (50% Lethal Concentration), DLD-1, semi-quantitative, nonlinear regression): 41 µM
inhibition of tube formation relative to the vehicle-treated controls ([3]; 100, 10 and 1 μM (≧30%)): significant inhibition
%, Inhibition of the total tube length (Mean ± SEM, n = 2) ([3]; 0.01 μM): 1 ± 1%
%, Inhibition of the total tube length (Mean ± SEM, n = 2) ([3]; 0.1 μM): 3 ± 4%
%, Inhibition of the total tube length (Mean ± SEM, n = 2) ([3]; 1 μM): 88 ± 6^a,b %
%, Inhibition of the total tube length (Mean ± SEM, n = 2) ([3]; 10 μM): 100 ± 0^a %
%, Inhibition of the total tube length (Mean ± SEM, n = 2) ([3]; 100 μM): 100 ± 0^a %
MIC (Minimum Inhibitory Concentration) ([3]; tube formation, significant inhibition ≧30%): 1 µM
